In patent US6506737B1, “Antimicrobial phosphonium and sulfonium polyhalide compositions” (Ecolab, Inc., priority 2000, dated 2003):

Legend:
S. aureus = experiment: Biocidal efficacy, log reduction of S. aureus (Table 2); assay type: cell-based, Staphylococcus aureus; conditions: total active 0.12-0.89 mmole/liter as listed per composition; for Log Reduction (S. aureus) (30 seconds): 30 seconds exposure; for Log Reduction (S. aureus) (60 seconds): 60 seconds exposure
[1] = system: Staphylococcus aureus (ATCC 6538); experiment: Antimicrobial efficacy, log reduction at 12 grams per gallon in sterile deionized water (Table 3); assay type: cell-based; conditions: ambient temperature
Procedure: (§1) A 4% solution of trimethyl sulfonium triiodide and a solution of 20% hexadecyl tributyl phosphonium diiodochloride were tested at a concentration of 12 grams per gallon in sterile deionized water against Staphylococcus aureus (ATCC 6538).

[2] = pH of the test solution (Table 3); assay type: physicochemical; conditions: test substance at 12 grams per gallon in sterile deionized water
Procedure: as §1

| SMILES | Log Reduction (S. aureus) (30 seconds) (S. aureus) | Log Reduction (S. aureus) (60 seconds) (S. aureus) | Log Reduction ([1]; exposure time 15 seconds) | Log Reduction ([1]; exposure time 30 seconds) | Log Reduction ([1]; exposure time 5 minutes, listed as 20% hexadecyl tributyl phosphonium diiodochloride) | pH [2] | Log Reduction ([1]; exposure time 30 seconds, listed as 4% trimethyl sulfonium triiodide) | Log Reduction ([1]; exposure time 5 minutes) |
| --- | --- | --- | --- | --- | --- | --- | --- | --- |
| C[N+](C)(C)CCO.Cl[I-]I [choline chloro diiodide] | >6.9 | >6.9 |  |  |  |  |  |  |
| CCCC[N+](CCCC)(CCCC)CCCC.Cl[I-]I [tetrabutyl ammonium chloro diiodide] | >6.4 | >6.4 |  |  |  |  |  |  |
| C[N+](C)(C)C.Cl[I-]I [tetramethyl ammonium chloro diiodide] | 4.0 | >6.8 |  |  |  |  |  |  |
| CCCCCCCCCCCCCCCC[P+](CCCC)(CCCC)CCCC.Cl[I-]I [tributyl hexadecyl phosphonium chloro diiodide] | 5.0 | 6.2 | 3.74 | 4.98 | 6.21 | 4.61 |  |  |
| C[S+](C)C.I[I-]I [trimethyl sulfonium triiodide] | >7.0 | >7.0 | 4.67 |  |  | 2.52 | >6.95 | >6.95 |
